The source made the active and inactive calls. No cut-off for these calls is given here.
Columns and labels:
[1] = test system: HEK293; assay: Cytotoxicity against HEK293 cells; assay type: functional, cell-based; settings: Homo sapiens
[2] = Apparent permeability from basolateral to apical side in MDR-MDCK cells overexpressing human p-glycoprotein at 5 uM after 120 mins; assay type: ADME, cell-based; settings: MDCK-MDR1
[3] = Apparent permeability from apical to basolateral side in MDR-MDCK cells overexpressing human p-glycoprotein at 5 uM after 120 mins; assay type: ADME, cell-based; settings: MDCK-MDR1
[4] = target: Tubulin (Homo sapiens) (UniProt P68371+Q9H4B7+P0DPH7+P68366+Q13509+Q71U36+P04350+Q3ZCM7+P07437+P68363+Q9BQE3+Q6PEY2+Q13885+Q9BVA1+Q9BUF5); assay: Effect on tubulin polymerization by microtubule polymerization assay; assay type: protein-complex assay
[5] = test system: MDCK; assay: (§1) Ratio of permeability from basolateral to apical over apical to basolateral side of the MDR-MDCK cells at 5 uM after 120 mins; assay type: ADME, cell-based; settings: human, mdck, 2 h, 5 µM
[6] = as §1; assay type: ADME, cell-based; settings: human, MDCK-MDR1
[7] = species on record: Homo sapiens; assay: Stability assessed as half life in human plasma
[8] = Stability assessed as half life in mouse plasma; assay type: ADME, cell-free
[9] = Stability in PBS assessed as percentage of remaining compound after 24 hrs; assay type: physicochemical; settings: read-out: Activity
[10] = Stability assessed as half life in PBS buffer; assay type: physicochemical

Row | SMILES | Papp B→A at 2 h, 5 µM [2] | Papp A→B at 2 h, 5 µM [3] | Activity [4] | Ratio [5] | efflux ratio at 2 h, 5 µM [6] | half-life [7] | half-life [8] | remaining at 24 h [9] | half-life [10] | IC50 [1]
1 | CC(=O)O[C@@]12CO[C@@H]1C[C@H](O)[C@@]1(C)C(=O)[C@H](O)C3=C(C)[C@@H](OC(=O)[C@H](O)[C@@H](NC(=O)OC(C)(C)C)c4ccccc4)C[C@@](O)([C@@H](OC(=O)c4ccccc4)[C@H]21)C3(C)C.O.O.O [DOCETAXEL] | 15.5 ×10⁻⁶ cm/s | < 0.62 ×10⁻⁶ cm/s | inactive | > 25 | – | – | – | – | – | 0.027 µM
2 | CC(=O)O[C@@]12CO[C@@H]1C[C@H](O)[C@@]1(C)C(=O)[C@H](OC(=O)NCC(=O)N(C)C)C3=C(C)[C@@H](OC(=O)[C@H](O)[C@@H](NC(=O)c4ccccc4)c4ccccc4)C[C@@](O)([C@@H](OC(=O)c4ccccc4)[C@H]21)C3(C)C | 0.8 ×10⁻⁶ cm/s | 0.09 ×10⁻⁶ cm/s | – | – | 8.8 | – | – | – | – | 1 µM
3 | CC(=O)O[C@@]12CO[C@@H]1C[C@H](O)[C@@]1(C)C(=O)[C@H](OC(=O)NCCC(=O)O)C3=C(C)[C@@H](OC(=O)[C@H](O)[C@@H](NC(=O)c4ccccc4)c4ccccc4)C[C@@](O)([C@@H](OC(=O)c4ccccc4)[C@H]21)C3(C)C | < 0.64 ×10⁻⁶ cm/s | < 0.64 ×10⁻⁶ cm/s | – | – | – | – | – | – | – | 7.4 µM
4 | CC(=O)O[C@H]1C(=O)[C@]2(C)[C@@H](OC(=O)NCC(=O)O)C[C@H]3OC[C@@]3(OC(C)=O)[C@H]2[C@H](OC(=O)c2ccccc2)[C@]2(O)C[C@H](OC(=O)[C@H](O)[C@@H](NC(=O)c3ccccc3)c3ccccc3)C(C)=C1C2(C)C | 0.06 ×10⁻⁶ cm/s | 0.07 ×10⁻⁶ cm/s | – | 0.9 | – | – | – | – | – | > 25 µM
5 | CC(=O)O[C@@]12CO[C@@H]1C[C@H](O)[C@@]1(C)C(=O)[C@H](OC(=O)NCC(=O)O)C3=C(C)[C@@H](OC(=O)[C@H](O)[C@@H](NC(=O)OC(C)(C)C)c4ccccc4)C[C@@](O)([C@@H](OC(=O)c4ccccc4)[C@H]21)C3(C)C | < 0.2 ×10⁻⁶ cm/s | < 0.2 ×10⁻⁶ cm/s | – | – | – | – | – | – | – | 1.7 µM
6 | CC(=O)O[C@@]12CO[C@@H]1C[C@H](O)[C@@]1(C)C(=O)[C@H](OC(=O)N(C)[C@H](C)[C@H](O)c3ccccc3)C3=C(C)[C@@H](OC(=O)[C@H](O)[C@@H](NC(=O)c4ccccc4)c4ccccc4)C[C@@](O)([C@@H](OC(=O)c4ccccc4)[C@H]21)C3(C)C | 25.3 ×10⁻⁶ cm/s | < 0.2 ×10⁻⁶ cm/s | – | > 127 | – | – | – | – | – | 0.024 µM
7 | CC(=O)O[C@@]12CO[C@@H]1C[C@H](O)[C@@]1(C)C(=O)[C@H](O)C3=C(C)[C@@H](OC(=O)[C@H](O)[C@@H](NC(=O)c4ccccc4)c4ccccc4)C[C@@](O)([C@@H](OC(=O)c4ccccc4)[C@H]21)C3(C)C | 5.17 ×10⁻⁶ cm/s | 0.13 ×10⁻⁶ cm/s | – | – | 39 | – | – | – | – | 0.076 µM
8 | CC(=O)O[C@@]12CO[C@@H]1C[C@H](O)[C@@]1(C)C(=O)[C@H](OC(=O)N[C@H]3CCOC3=O)C3=C(C)[C@@H](OC(=O)[C@H](O)[C@@H](NC(=O)c4ccccc4)c4ccccc4)C[C@@](O)([C@@H](OC(=O)c4ccccc4)[C@H]21)C3(C)C | 0.21 ×10⁻⁶ cm/s | < 0.07 ×10⁻⁶ cm/s | – | > 3 | – | – | – | – | – | 1.9 µM
9 | CC(=O)O[C@@]12CO[C@@H]1C[C@H](O)[C@@]1(C)C(=O)[C@H](OC(=O)N(C)C(C)(C)C(=O)O)C3=C(C)[C@@H](OC(=O)[C@H](O)[C@@H](NC(=O)c4ccccc4)c4ccccc4)C[C@@](O)([C@@H](OC(=O)c4ccccc4)[C@H]21)C3(C)C | 0.05 ×10⁻⁶ cm/s | 0.05 ×10⁻⁶ cm/s | – | 1 | – | – | – | – | – | 1 µM

Further lines, with some results ahead:

Row | Papp B→A at 2 h, 5 µM [2] | Papp A→B at 2 h, 5 µM [3] | Activity [4] | Ratio [5] | efflux ratio at 2 h, 5 µM [6] | half-life [7] | half-life [8] | remaining at 24 h [9] | half-life [10] | SMILES | IC50 [1]
10 | < 0.21 ×10⁻⁶ cm/s | < 0.21 ×10⁻⁶ cm/s | – | – | – | – | – | – | – | CC(=O)O[C@@]12CO[C@@H]1C[C@H](O)[C@@]1(C)C(=O)[C@H](OC(=O)NCCO)C3=C(C)[C@@H](OC(=O)[C@H](O)[C@@H](NC(=O)c4ccccc4)c4ccccc4)C[C@@](O)([C@@H](OC(=O)c4ccccc4)[C@H]21)C3(C)C | 0.7 µM
11 | 0.05 ×10⁻⁶ cm/s | 0.06 ×10⁻⁶ cm/s | – | 0.9 | – | – | – | – | – | CC(=O)O[C@@]12CO[C@@H]1C[C@H](O)[C@@]1(C)C(=O)[C@H](OC(=O)N(C)CC(=O)O)C3=C(C)[C@@H](OC(=O)[C@H](O)[C@@H](NC(=O)c4ccccc4)c4ccccc4)C[C@@](O)([C@@H](OC(=O)c4ccccc4)[C@H]21)C3(C)C | 1.8 µM
12 | 3.36 ×10⁻⁶ cm/s | < 0.62 ×10⁻⁶ cm/s | – | > 5.4 | – | – | – | – | – | COC(=O)CNC(=O)O[C@H]1C(=O)[C@@]2(C)[C@H]([C@H](OC(=O)c3ccccc3)[C@]3(O)C[C@H](OC(=O)[C@H](O)[C@@H](NC(=O)c4ccccc4)c4ccccc4)C(C)=C1C3(C)C)[C@]1(OC(C)=O)CO[C@@H]1C[C@@H]2O | 0.06 µM
13 | 0.1 ×10⁻⁶ cm/s | 0.08 ×10⁻⁶ cm/s | – | 1.3 | – | 15.3 h | 19.5 h | 75.1% | > 60 h | CC(=O)O[C@@]12CO[C@@H]1C[C@H](O)[C@@]1(C)C(=O)[C@H](OC(=O)CCC(=O)O)C3=C(C)[C@@H](OC(=O)[C@H](O)[C@@H](NC(=O)c4ccccc4)c4ccccc4)C[C@@](O)([C@@H](OC(=O)c4ccccc4)[C@H]21)C3(C)C | 4.7 µM
14 | < 0.06 ×10⁻⁶ cm/s | < 0.06 ×10⁻⁶ cm/s | – | – | – | – | – | – | – | CC(=O)O[C@@]12CO[C@@H]1C[C@H](O)[C@@]1(C)C(=O)[C@H](OC(=O)N[C@@H](C)C(=O)O)C3=C(C)[C@@H](OC(=O)[C@H](O)[C@@H](NC(=O)c4ccccc4)c4ccccc4)C[C@@](O)([C@@H](OC(=O)c4ccccc4)[C@H]21)C3(C)C | 3.9 µM
15 | 22.6 ×10⁻⁶ cm/s | 0.17 ×10⁻⁶ cm/s | – | – | 133 | – | – | – | – | CC(=O)O[C@@]12CO[C@@H]1C[C@H](O)[C@@]1(C)C(=O)[C@H](OC(=O)N3CCOCC3)C3=C(C)[C@@H](OC(=O)[C@H](O)[C@@H](NC(=O)c4ccccc4)c4ccccc4)C[C@@](O)([C@@H](OC(=O)c4ccccc4)[C@H]21)C3(C)C | –
16 | 0.05 ×10⁻⁶ cm/s | 0.09 ×10⁻⁶ cm/s | – | – | 0.6 | 52 h | 31.3 h | 91.6% | > 60 h | CC(=O)O[C@@]12CO[C@@H]1C[C@H](O)[C@@]1(C)C(=O)[C@H](OC(=O)NCC(=O)O)C3=C(C)[C@@H](OC(=O)[C@H](O)[C@@H](NC(=O)c4ccccc4)c4ccccc4)C[C@@](O)([C@@H](OC(=O)c4ccccc4)[C@H]21)C3(C)C | 8.3 µM
17 | 28.5 ×10⁻⁶ cm/s | 0.2 ×10⁻⁶ cm/s | inactive | – | – | – | 30.1 h | 85.2% | > 60 h | CC(=O)O[C@H]1C(=O)[C@@]2(C)[C@H]([C@H](OC(=O)c3ccccc3)[C@]3(O)C[C@H](OC(=O)[C@H](O)[C@@H](NC(=O)c4ccccc4)c4ccccc4)C(C)=C1C3(C)C)[C@]1(OC(C)=O)CO[C@@H]1C[C@@H]2O [PACLITAXEL] | 0.01 µM
18 | < 0.63 ×10⁻⁶ cm/s | < 0.63 ×10⁻⁶ cm/s | – | – | – | – | – | – | – | CC(=O)O[C@@]12CO[C@@H]1C[C@H](O)[C@@]1(C)C(=O)[C@H](OC(=O)N[C@H](C)C(=O)O)C3=C(C)[C@@H](OC(=O)[C@H](O)[C@@H](NC(=O)c4ccccc4)c4ccccc4)C[C@@](O)([C@@H](OC(=O)c4ccccc4)[C@H]21)C3(C)C | 2.5 µM
